Measured values reported in the NIST ThermoML archive (doi:10.1021/je900909s).
Several values for one entry are separate records, joined by “and”; a condition that tells them apart may be missing. Identical values can stand only once. ± gives the expanded uncertainty stated by the source.

Test: cn = amount concentration of the nth substance listed, in mol/dm3
Settings: 101 kPa, Liquid, c1 = 2; for speed of sound: Frequency=4 MHz, Linear variable-path acoustic interferometer

Compound | speed of sound (298.15 K) [m/s] | mass density (298.15 K) [kg/m3] | speed of sound (303.15 K) [m/s] | mass density (303.15 K) [kg/m3] | speed of sound (308.15 K) [m/s] | mass density (308.15 K) [kg/m3] | speed of sound (313.15 K) [m/s] | mass density (313.15 K) [kg/m3] | speed of sound (318.15 K) [m/s] | mass density (318.15 K) [kg/m3] | speed of sound (323.15 K) [m/s] | mass density (323.15 K) [kg/m3] | speed of sound (328.15 K) | mass density (328.15 K) [kg/m3]
[Cl-].[Na+] [sodium chloride] + O | 1614.3 ± 2.1 | 1075 ± 1.4 | 1620.9 ± 2.1 | 1073 ± 1.5 | 1627.6 ± 2.1 | 1070.7 ± 1.5 | 1633.7 ± 2.1 | 1068.3 ± 1.6 | 1637.3 ± 2.1 | 1065.7 ± 1.7 | 1640.5 ± 2.2 | 1063.1 ± 1.7 | 1643.7 ± 2.2 m/s and 1642.7 ± 2.2 m/s | 1060.2 ± 1.8
O=[N+]([O-])[O-].[Na+] [sodium nitrate] + O | 1581.4 ± 2.1 | 1104.2 ± 1.5 | 1588.6 ± 2.1 | 1101.7 ± 1.5 | 1593.2 ± 2.1 | 1099 ± 1.6 | 1596.3 ± 2.1 | 1096.3 ± 1.7 | 1600.1 ± 2.1 | 1093.4 ± 1.7 | 1604.3 ± 2.1 | 1090.4 ± 1.8 | 1607.1 ± 2.1 m/s | 1087.2 ± 1.8
